pKi: −log10 of the molar value.
Experiments:
Dipeptidyl peptidase 2 = Dipeptidyl peptidase 2 (Homo sapiens, UniProt Q9UHL4); experiment: Inhibition of DPP7
Dipeptidyl peptidase 8 = Dipeptidyl peptidase 8 (Homo sapiens, UniProt Q6V1X1)
Dipeptidyl peptidase 9 = Dipeptidyl peptidase 9 (Homo sapiens, UniProt Q86TI2)
Prolyl endopeptidase = target: T1, Prolyl endopeptidase (Homo sapiens, UniProt P48147); experiment: Inhibition of POP
T1 sequence (P48147 whole entry): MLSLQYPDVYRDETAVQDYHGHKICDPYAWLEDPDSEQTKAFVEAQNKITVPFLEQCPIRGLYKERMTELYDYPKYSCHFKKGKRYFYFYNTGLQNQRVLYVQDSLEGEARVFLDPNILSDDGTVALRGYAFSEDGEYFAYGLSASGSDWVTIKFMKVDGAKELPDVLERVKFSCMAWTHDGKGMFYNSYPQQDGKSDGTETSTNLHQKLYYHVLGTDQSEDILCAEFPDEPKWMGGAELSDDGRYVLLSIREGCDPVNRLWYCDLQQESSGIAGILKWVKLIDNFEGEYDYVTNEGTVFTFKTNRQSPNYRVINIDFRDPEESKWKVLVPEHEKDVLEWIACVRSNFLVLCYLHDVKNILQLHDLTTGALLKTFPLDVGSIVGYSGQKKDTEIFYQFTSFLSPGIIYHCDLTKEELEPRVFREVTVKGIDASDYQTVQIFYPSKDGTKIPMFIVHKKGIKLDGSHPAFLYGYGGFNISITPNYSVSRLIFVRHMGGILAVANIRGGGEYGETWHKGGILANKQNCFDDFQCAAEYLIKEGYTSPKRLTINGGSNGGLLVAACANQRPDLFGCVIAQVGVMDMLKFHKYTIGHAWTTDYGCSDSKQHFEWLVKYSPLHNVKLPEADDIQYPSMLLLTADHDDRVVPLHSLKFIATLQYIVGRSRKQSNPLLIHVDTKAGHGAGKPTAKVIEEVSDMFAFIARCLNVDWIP

Prolyl endopeptidase FAP = target: T2, Prolyl endopeptidase FAP (Homo sapiens, UniProt Q12884); experiment: Inhibition of FAPalpha
T2 sequence (Q12884 whole entry): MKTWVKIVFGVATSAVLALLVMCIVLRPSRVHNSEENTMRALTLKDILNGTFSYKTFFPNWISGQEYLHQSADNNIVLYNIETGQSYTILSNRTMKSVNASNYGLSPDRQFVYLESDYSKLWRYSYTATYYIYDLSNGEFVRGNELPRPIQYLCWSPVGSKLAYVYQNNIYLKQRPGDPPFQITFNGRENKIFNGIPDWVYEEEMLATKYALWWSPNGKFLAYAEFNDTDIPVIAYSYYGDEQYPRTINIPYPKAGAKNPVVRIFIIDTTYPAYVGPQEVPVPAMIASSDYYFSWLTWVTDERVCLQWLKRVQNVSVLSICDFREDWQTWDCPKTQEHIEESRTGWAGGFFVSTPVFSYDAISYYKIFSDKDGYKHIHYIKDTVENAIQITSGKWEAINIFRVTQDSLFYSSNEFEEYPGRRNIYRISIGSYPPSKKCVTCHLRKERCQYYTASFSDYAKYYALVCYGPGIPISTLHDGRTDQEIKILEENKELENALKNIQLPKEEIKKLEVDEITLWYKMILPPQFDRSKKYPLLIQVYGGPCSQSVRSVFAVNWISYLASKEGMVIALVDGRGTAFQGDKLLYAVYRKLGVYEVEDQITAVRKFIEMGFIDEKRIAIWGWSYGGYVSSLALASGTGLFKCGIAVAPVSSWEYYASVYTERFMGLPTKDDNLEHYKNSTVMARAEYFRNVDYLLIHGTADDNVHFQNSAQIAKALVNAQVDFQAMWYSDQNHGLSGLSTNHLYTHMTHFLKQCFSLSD

Measured: pKi

Chain of Dipeptidyl peptidase 8 (Q6V1X1 whole entry): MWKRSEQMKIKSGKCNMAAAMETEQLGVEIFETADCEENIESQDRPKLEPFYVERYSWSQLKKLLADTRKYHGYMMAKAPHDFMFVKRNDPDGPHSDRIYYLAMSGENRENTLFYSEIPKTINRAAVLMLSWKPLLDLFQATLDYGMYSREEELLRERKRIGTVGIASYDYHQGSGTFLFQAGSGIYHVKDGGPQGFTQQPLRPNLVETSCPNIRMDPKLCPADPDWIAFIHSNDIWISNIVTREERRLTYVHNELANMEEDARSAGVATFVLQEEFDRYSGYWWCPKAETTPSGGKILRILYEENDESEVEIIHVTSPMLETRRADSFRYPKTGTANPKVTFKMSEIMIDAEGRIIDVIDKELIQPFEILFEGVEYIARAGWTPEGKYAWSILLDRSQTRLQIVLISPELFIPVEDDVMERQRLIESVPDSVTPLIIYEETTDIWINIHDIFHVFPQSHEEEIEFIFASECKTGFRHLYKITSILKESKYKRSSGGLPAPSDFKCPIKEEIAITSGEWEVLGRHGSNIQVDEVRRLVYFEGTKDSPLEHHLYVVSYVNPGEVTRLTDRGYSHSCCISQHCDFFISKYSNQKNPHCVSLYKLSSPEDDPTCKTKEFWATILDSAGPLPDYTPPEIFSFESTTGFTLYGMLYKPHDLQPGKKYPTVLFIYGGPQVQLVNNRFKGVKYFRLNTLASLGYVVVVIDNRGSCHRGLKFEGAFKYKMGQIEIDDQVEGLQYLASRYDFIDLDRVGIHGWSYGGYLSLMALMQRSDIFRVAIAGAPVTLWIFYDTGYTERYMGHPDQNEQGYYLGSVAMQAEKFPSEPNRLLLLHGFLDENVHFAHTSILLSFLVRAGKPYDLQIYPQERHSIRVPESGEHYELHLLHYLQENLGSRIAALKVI
Chain of Dipeptidyl peptidase 9 (Q86TI2 whole entry): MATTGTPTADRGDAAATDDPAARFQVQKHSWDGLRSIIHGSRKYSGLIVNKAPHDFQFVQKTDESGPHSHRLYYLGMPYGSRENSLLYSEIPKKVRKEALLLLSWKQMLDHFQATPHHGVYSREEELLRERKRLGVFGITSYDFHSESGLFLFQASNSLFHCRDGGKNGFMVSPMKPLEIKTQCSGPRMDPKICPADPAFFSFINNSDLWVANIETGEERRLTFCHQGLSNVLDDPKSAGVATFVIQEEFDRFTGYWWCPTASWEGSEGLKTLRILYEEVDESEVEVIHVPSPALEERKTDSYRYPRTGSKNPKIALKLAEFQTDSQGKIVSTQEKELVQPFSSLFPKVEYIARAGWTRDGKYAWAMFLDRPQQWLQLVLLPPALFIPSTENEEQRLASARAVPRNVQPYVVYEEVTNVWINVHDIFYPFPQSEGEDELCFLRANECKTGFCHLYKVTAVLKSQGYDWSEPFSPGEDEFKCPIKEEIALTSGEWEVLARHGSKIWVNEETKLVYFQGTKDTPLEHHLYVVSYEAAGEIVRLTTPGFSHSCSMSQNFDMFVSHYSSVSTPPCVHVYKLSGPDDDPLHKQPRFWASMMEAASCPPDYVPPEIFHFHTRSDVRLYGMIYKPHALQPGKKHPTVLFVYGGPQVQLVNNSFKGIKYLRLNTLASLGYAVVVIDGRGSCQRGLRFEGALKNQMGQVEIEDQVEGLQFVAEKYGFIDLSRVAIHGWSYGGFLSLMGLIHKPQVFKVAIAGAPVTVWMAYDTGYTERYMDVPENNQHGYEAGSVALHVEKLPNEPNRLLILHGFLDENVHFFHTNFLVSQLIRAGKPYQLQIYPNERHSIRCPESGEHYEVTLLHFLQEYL

C#C[C@H]1CC[C@@H](C#N)N1C(=O)CNC1(C)CCN(c2ccc(C#N)cn2)CC1
< 4.52: Dipeptidyl peptidase 2 | Dipeptidyl peptidase 8 | Dipeptidyl peptidase 9 | Prolyl endopeptidase | Prolyl endopeptidase FAP

C#C[C@H]1CC[C@@H](C#N)N1C(=O)CN[C@H]1CC[C@H](Oc2ccc(C#N)cn2)CC1 (mixture of isomers)
< 4.52: Dipeptidyl peptidase 8

From ChEMBL document CHEMBL1137403, “Discovery of 2-[4-{{2-(2S,5R)-2-cyano-5-ethynyl-1-pyrrolidinyl]-2-oxoethyl]amino]- 4-methyl-1-piperidinyl]-4-pyridinecarboxylic acid (ABT-279): a very potent, selective, effective, and well-tolerated inhibitor of dipeptidyl peptidase-IV, useful for the treatment of diabetes” (J Med Chem, 2006)
